# Laboratory results taken from patent publication US20240108006A1, “PESTICIDALLY ACTIVE HETEROAROMATIC COMPOUNDS” (SYNGENTA CROP PROTECTION AG, priority 2021, published 2024).
# Tested on: Chilo suppressalis
# Experiment: Example B1: Chilo suppressalis (striped rice stemborer), artificial diet, L2 larvae
# Format: in vivo
# Conditions: 144 h, application rate of 200 ppm, 6 days after infestation, read-out: control in at least one of the three categories (mortality, anti-feedant effect, or growth inhibition)
# Description: Example B1: Chilo suppressalis (Striped Rice Stemborer)
# 24-well microtiter plates with artificial diet were treated with aqueous test solutions prepared from 10,000 ppm DMSO stock solutions by pipetting. After drying, the plates were infested with L2 larvae (6-8 per well). The samples were assessed for mortality, anti-feeding effect, and growth inhibition in comparison to untreated samples 6 days after infestation. Control of Chilo suppressalis by a test sample is given when at least one of the categories mortality, anti-feedant effect, and growth inhibition is higher than the untreated sample.
row,Structure (SMILES),"percent control (mortality, anti-feedant effect or growth inhibition) at 200 ppm"
1,"Cc1cc([N+](=O)[O-])c(C)cc1NC(=O)N[C@@H](C)c1ncnn1-c1ncccn1 [Example P323, 1-(2,5-dimethyl-4-nitro-phenyl)-3-[(1S)-1-(2-pyrimidin-2-yl-1,2,4-triazol-3-yl)ethyl]urea]",≥ 80%
2,"C[C@H](NC(=O)Nc1cc(C(F)(F)F)c(Cl)cc1F)c1ncnn1-c1ncccn1 [Example P393, 1-[4-chloro-2-fluoro-5-(trifluoromethyl)phenyl]-3-[(1S)-1-(2-pyrimidin-2-yl-1,2,4-triazol-3-yl)ethyl]urea]",≥ 80%
3,"C[C@H](NC(=O)Nc1cc2c(cc1Br)CCC2)c1ncnn1-c1ncccn1 [Example P303, 1-(6-bromoindan-5-yl)-3-[(1S)-1-(2-pyrimidin-2-yl-1,2,4-triazol-3-yl)ethyl]urea]",≥ 80%
4,"C[C@H](NC(=O)Nc1ccc(F)cc1C(C)(F)F)c1ncnn1-c1ncccn1 [Example P45, 1-[2-(1,1-difluoroethyl)-4-fluoro-phenyl]-3-[(1S)-1-(2-pyrimidin-2-yl-1,2,4-triazol-3-yl)ethyl]urea]",≥ 80%
5,"Cc1cc(F)c(C#N)cc1NC(=O)N[C@@H](C)c1ncnn1-c1ncccn1 [Example P296, 1-(5-cyano-4-fluoro-2-methyl-phenyl)-3-[(1S)-1-(2-pyrimidin-2-yl-1,2,4-triazol-3-yl)ethyl]urea]",≥ 80%
6,"C[C@H](NC(=O)Nc1cc(Br)c(F)cc1I)c1ncnn1-c1ncccn1 [Example P371, 1-(5-bromo-4-fluoro-2-iodo-phenyl)-3-[(1S)-1-(2-pyrimidin-2-yl-1,2,4-triazol-3-yl)ethyl]urea]",≥ 80%
7,"Cc1cc2c(cc1NC(=O)N[C@@H](C)c1ncnn1-c1ncccn1)OCO2 [Example P344, 1-(6-methyl-1,3-benzodioxol-5-yl)-3-[(1S)-1-(2-pyrimidin-2-yl-1,2,4-triazol-3-yl)ethyl]urea]",≥ 80%
8,"C[C@H](NC(=O)Nc1ccc(F)cc1C(F)(F)F)c1ncnn1-c1ncccn1 [Example P116, 1-[4-fluoro-2-(trifluoromethyl)phenyl]-3-[(1S)-1-(2-pyrimidin-2-yl-1,2,4-triazol-3-yl)ethyl]urea]",≥ 80%
9,"COc1cc(C)c(NC(=O)N[C@@H](C)c2ncnn2-c2ncccn2)cc1F [Example P378, 1-(5-fluoro-4-methoxy-2-methyl-phenyl)-3-[(1S)-1-(2-pyrimidin-2-yl-1,2,4-triazol-3-yl)ethyl]urea]",≥ 80%
10,"COc1cc(S(C)(=O)=O)c(NC(=O)N[C@@H](C)c2ncnn2-c2ncccn2)cc1Cl [Example P192, 1-(5-chloro-4-methoxy-2-methylsulfonyl-phenyl)-3-[(1S)-1-(2-pyrimidin-2-yl-1,2,4-triazol-3-yl)ethyl]urea]",≥ 80%
11,"Cc1cc(NC(=O)N[C@@H](C)c2ncnn2-c2ncccn2)c(Cl)cc1F [Example P385, 1-(2-chloro-4-fluoro-5-methyl-phenyl)-3-[(1S)-1-(2-pyrimidin-2-yl-1,2,4-triazol-3-yl)ethyl]urea]",≥ 80%
12,"Cc1cc(F)c(C(F)(F)F)cc1NC(=O)N[C@@H](C)c1ncnn1-c1ncccn1 [Example P297, 1-[4-fluoro-2-methyl-5-(trifluoromethyl)phenyl]-3-[(1S)-1-(2-pyrimidin-2-yl-1,2,4-triazol-3-yl)ethyl]urea]",≥ 80%
13,"C[C@H](NC(=O)Nc1cc(Cl)c(F)cc1F)c1ncnn1-c1ncccn1 [Example P379, 1-(5-chloro-2,4-difluoro-phenyl)-3-[(1S)-1-(2-pyrimidin-2-yl-1,2,4-triazol-3-yl)ethyl]urea]",≥ 80%
14,"C[C@@H](c1ncnn1-c1ncccn1)N1CCCN(c2cc(OC(F)(F)C(F)F)c(Cl)cc2Cl)C1=O [Example P311, 1-[2,4-dichloro-5-(1,1,2,2-tetrafluoroethoxy)phenyl]-3-[(1S)-1-(2-pyrimidin-2-yl-1,2,4-triazol-3-yl)ethyl]hexahydropyrimidin-2-one]",≥ 80%
15,"Cc1cc(C)c(N2CCCC2=O)cc1NC(=O)N[C@@H](C)c1ncnn1-c1ncccn1 [Example P212, 1-[2,4-dimethyl-5-(2-oxopyrrolidin-1-yl)phenyl]-3-[(1S)-1-(2-pyrimidin-2-yl-1,2,4-triazol-3-yl)ethyl]urea]",≥ 80%
16,"Cc1cc(Br)ncc1NC(=O)N[C@@H](C)c1ncnn1-c1ncccn1 [Example P342, 1-(6-bromo-4-methyl-3-pyridyl)-3-[(1S)-1-(2-pyrimidin-2-yl-1,2,4-triazol-3-yl)ethyl]urea]",≥ 80%
17,"C[C@H](NC(=O)Nc1cc2c(cc1Br)CCC(=O)N2)c1ncnn1-c1ncccn1 [Example P322, 1-(6-bromo-2-oxo-3,4-dihydro-1H-quinolin-7-yl)-3-[(1S)-1-(2-pyrimidin-2-yl-1,2,4-triazol-3-yl)ethyl]urea]",≥ 80%
18,"COc1cc(NC(=O)N[C@@H](C)c2ncnn2-c2ncccn2)c(Br)cc1Cl [Example P294, 1-(2-bromo-4-chloro-5-methoxy-phenyl)-3-[(1S)-1-(2-pyrimidin-2-yl-1,2,4-triazol-3-yl)ethyl]urea]",≥ 80%
19,"Cc1cc(Cl)ncc1NC(=O)N[C@@H](C)c1ncnn1-c1ncccn1 [Example P318, 1-(6-chloro-4-methyl-3-pyridyl)-3-[(1S)-1-(2-pyrimidin-2-yl-1,2,4-triazol-3-yl)ethyl]urea]",≥ 80%
20,"Cc1cc(Br)ccc1NC(=O)N[C@@H](C)c1ncnn1-c1ncccn1 [Example P106, 1-(4-bromo-2-methyl-phenyl)-3-[(1S)-1-(2-pyrimidin-2-yl-1,2,4-triazol-3-yl)ethyl]urea]",≥ 80%
21,"Cc1cc(NC(=O)N[C@@H](C)c2ncnn2-c2ncccn2)c(C)cc1F [Example P295, 1-(4-fluoro-2,5-dimethyl-phenyl)-3-[(1S)-1-(2-pyrimidin-2-yl-1,2,4-triazol-3-yl)ethyl]urea]",≥ 80%
22,"C[C@H](NC(=O)Nc1cc(F)c(Br)cc1F)c1ncnn1-c1ncccn1 [Example P339, 1-(4-bromo-2,5-difluoro-phenyl)-3-[(1S)-1-(2-pyrimidin-2-yl-1,2,4-triazol-3-yl)ethyl]urea]",≥ 80%

# Tested on: Plutella xylostella
# Experiment: Example B8: Plutella xylostella (diamond back moth), artificial diet 24-well, eggs
# Format: in vivo
# Conditions: 192 h, application rate of 200 ppm, 8 days after infestation, read-out: effect in at least one of the two categories (mortality or growth inhibition)
# Description: Example B8: Plutella xylostella (Diamond Back Moth)
# 24-well microtiter plates with artificial diet were treated with aqueous test solutions prepared from 10,000 ppm DMSO stock solutions by pipetting. After drying, Plutella eggs were pipetted through a plastic stencil onto a gel blotting paper and the plate was closed with it. The samples were assessed for mortality and growth inhibition in comparison to untreated samples 8 days after infestation.
# The following compounds gave an effect of at least 80% in at least one of the two categories (mortality or growth inhibition) at an application rate of 200 ppm: […]
row,Structure (SMILES),percent effect (mortality or growth inhibition) at 200 ppm
1,"COc1cc(NC(=O)N[C@@H](C)c2ncnn2-c2ncccn2)c(I)cc1Cl [Example P288, 1-(4-chloro-2-iodo-5-methoxy-phenyl)-3-[(1S)-1-(2-pyrimidin-2-yl-1,2,4-triazol-3-yl)ethyl]urea]",≥ 80%
2,"C[C@H](NC(=O)Nc1nc(C2CC2)cc(C2CC2)n1)c1ncnn1-c1ncccn1 [Example P33, 1-(4,6-dicyclopropylpyrimidin-2-yl)-3-[(1S)-1-(2-pyrimidin-2-yl-1,2,4-triazol-3-yl)ethyl]urea]",≥ 80%
3,"Cc1cc(NC(=O)N[C@@H](C)c2ncnn2-c2ncccn2)c(Cl)cc1Br [Example P290, 1-(4-bromo-2-chloro-5-methyl-phenyl)-3-[(1S)-1-(2-pyrimidin-2-yl-1,2,4-triazol-3-yl)ethyl]urea]",≥ 80%
4,"CC(NC(=O)Nc1ccc(Cl)c(C(F)(F)F)c1)c1nccnc1-n1nccn1 (stereo not shown) [Example P259, 1-[4-chloro-3-(trifluoromethyl)phenyl]-3-[1-[3-(triazol-2-yl)pyrazin-2-yl]ethyl]urea]",≥ 80%
5,"CC(=O)c1cc(NC(=O)N[C@@H](C)c2ncnn2-c2ncccn2)c(Cl)cc1Cl [Example P229, 1-(5-acetyl-2,4-dichloro-phenyl)-3-[(1S)-1-(2-pyrimidin-2-yl-1,2,4-triazol-3-yl)ethyl]urea]",≥ 80%
6,"COC(=O)c1cc(NC(=O)N[C@@H](C)c2ncnn2-c2ncccn2)c(F)cc1Br [Example P228, methyl 2-bromo-4-fluoro-5-[[(1S)-1-(2-pyrimidin-2-yl-1,2,4-triazol-3-yl)ethyl]carbamoylamino]benzoate]",≥ 80%
7,"C[C@H](NC(=O)Nc1cc(Cl)ccc1C(F)(F)F)c1ncnn1-c1ncccn1 [Example P12, 1-[5-chloro-2-(trifluoromethyl)phenyl]-3-[(1S)-1-(2-pyrimidin-2-yl-1,2,4-triazol-3-yl)ethyl]urea]",≥ 80%
8,"C[C@H](NC(=O)Nc1cc(C(F)(F)F)c(Cl)cc1Cl)c1ncnn1-c1ccc(C(=O)N2CCOCC2)cn1 [Example P175, 1-[2,4-dichloro-5-(trifluoromethyl)phenyl]-3-[(1S)-1-[2-[5-(morpholine-4-carbonyl)-2-pyridyl]-1,2,4-triazol-3-yl]ethyl]urea]",≥ 80%
9,"Cc1cc(Cl)c(Br)cc1NC(=O)N[C@@H](C)c1ncnn1-c1ncccn1 [Example P305, 1-(5-bromo-4-chloro-2-methyl-phenyl)-3-[(1S)-1-(2-pyrimidin-2-yl-1,2,4-triazol-3-yl)ethyl]urea]",≥ 80%
